PMC7946667 (Cancer Chemotherapy and Pharmacology, 2021)
“Also recorded” adds a separate entry of the source. Read-outs that look alike come from different tables or passages of the source.

Tested on: CYP2C9
Details: for AUC0-inf, adjusted geometric mean / Cmax, adjusted geometric mean: linear mixed effects model; for Tmax: median [min, max]; for AUC0–144 h / Cmax: patient plasma; for AUC0–144 h / Cmax / Metabolite-to-parent ratio: geometric mean (CV%); for Metabolite-to-parent ratio: AUC0–144 h based, molecular weight corrected
[1] = treatment warfarin + ceritinib 750 mg QD for 3 weeks
[2] = warfarin 10 mg single oral dose + ceritinib 750 mg QD at steady state (Day 28)
[3] = warfarin 10 mg single oral dose alone (Day 1)
[4] = warfarin + ceritinib / warfarin alone
[5] = warfarin + ceritinib vs warfarin alone

Description: To assess the pharmacokinetics of probe substrates, blood samples were obtained on Days 1 and 28 at pre-dose and at 0.25, 0.5, 1, 2, 3, 4, 6, 8, 10, 24, 48, 72, 96, 120, and 144 h post-dose.
A linear mixed-effects model was fitted to the log-transformed primary PK parameters (Cmax, AUC0-144 h, and AUC0-inf) and included a fixed effect for treatment and a random effect for subject.

| Compound | AUC0-inf, adjusted geometric mean [1] [ng·h/mL] | Cmax, adjusted geometric mean [1] [ng/mL] | AUC0-inf, adjusted geometric mean (treatment warfarin alone) [ng·h/mL] | Cmax, adjusted geometric mean (treatment warfarin alone) [ng/mL] | Tmax (warfarin 10 mg single oral dose + ceritinib 750 mg QD (Day 28)) | AUC0–144 h [2] | Cmax [2] | Tmax [3] | AUC0–144 h [3] | Cmax [3] | Metabolite-to-parent ratio (warfarin + ceritinib 750 mg QD (Day 28)) | Metabolite-to-parent ratio (warfarin + ceritinib 750 mg QD (Day 28), listed as 7-hydroxy-S-warfarin) [%] | AUC0-inf geometric mean ratio (90% CI) [4] | Cmax geometric mean ratio (90% CI) [4] | decrease in the metabolite-to-parent AUC ratio [5] [%] | Metabolite-to-parent ratio (warfarin alone (Day 1)) | Metabolite-to-parent ratio (warfarin alone (Day 1), listed as 7-hydroxy-S-warfarin) [%] | impact of ceritinib on R-warfarin pharmacokinetics [5] | reduction of S-warfarin CL/F (co-administered with ceritinib vs warfarin alone) |
| --- | --- | --- | --- | --- | --- | --- | --- | --- | --- | --- | --- | --- | --- | --- | --- | --- | --- | --- | --- |
| CC(=O)C[C@@H](c1ccccc1)c1c(O)c2ccc(O)cc2oc1=O [7-Hydroxy-S-warfarin, 7-hydroxy-S-warfarin] | 3330 | 34.8 | 3090 | 39.1 | 47.2 [8.50; 73.7] h | 3320 (64.1) h*ng/mL | 34.9 (61.6) ng/mL | 24.2 [2.97; 49.9] h | 2910 (61.8) h*ng/mL | 39.7 (60.3) ng/mL | 11.7 (58.2) % | 11.7 | 1.08 | 0.890 | 18 | 14.3 (66.6) % | 14.3 | – | – |
| CC(=O)C[C@H](c1ccccc1)c1c(O)c2ccccc2oc1=O [R-warfarin] | 38900 | 616 | 36300 | 560 | – | 38,500 (34.9) h*ng/mL | 616 (23.6) ng/mL | – | 30,600 (39.0) h*ng/mL | 560 (34.2) ng/mL | – | – | – | – | – | – | – | did not affect the pharmacokinetics of R-warfarin to a clinically significant extent; also recorded: negligible | – |
| CC(=O)C[C@@H](c1ccccc1)c1c(O)c2ccccc2oc1=O [S-warfarin] | 32800 | 598 | 21200 | 569 | – | 28,400 (36.0) h*ng/mL | 599 (27.5) ng/mL | – | 18,200 (46.6) h*ng/mL | 569 (34.9) ng/mL | – | – | – | – | – | – | – | – | approximately 30% |
